Experimental data as given in US7511041B2, “Fused azole-pyrimidine derivatives” (Bayer Pharmaceuticals Corporation, priority 2002, dated 2009).
pIC50: −log10 of the molar value. Like-named read-outs stand apart in the source and are kept apart here.

Key:
[1] = molecular target: T1, Recombinant human PI3Kγ (full length human PI3K p110γ) (Homo sapiens, UniProt P48736); assay: Kinase assay of PI3Kγ (solid-phase lipid kinase assay); format: biochemical
T1 construct: full length human PI3K p110γ fused with a His6-tag at the C-terminus; His6 (C); purchased ALEXIS BIOCHEMICALS #201-055-C010; host or cells: S. frugiperda 9 insect cells
T1 sequence (P48736 whole entry, the tested form may be a part): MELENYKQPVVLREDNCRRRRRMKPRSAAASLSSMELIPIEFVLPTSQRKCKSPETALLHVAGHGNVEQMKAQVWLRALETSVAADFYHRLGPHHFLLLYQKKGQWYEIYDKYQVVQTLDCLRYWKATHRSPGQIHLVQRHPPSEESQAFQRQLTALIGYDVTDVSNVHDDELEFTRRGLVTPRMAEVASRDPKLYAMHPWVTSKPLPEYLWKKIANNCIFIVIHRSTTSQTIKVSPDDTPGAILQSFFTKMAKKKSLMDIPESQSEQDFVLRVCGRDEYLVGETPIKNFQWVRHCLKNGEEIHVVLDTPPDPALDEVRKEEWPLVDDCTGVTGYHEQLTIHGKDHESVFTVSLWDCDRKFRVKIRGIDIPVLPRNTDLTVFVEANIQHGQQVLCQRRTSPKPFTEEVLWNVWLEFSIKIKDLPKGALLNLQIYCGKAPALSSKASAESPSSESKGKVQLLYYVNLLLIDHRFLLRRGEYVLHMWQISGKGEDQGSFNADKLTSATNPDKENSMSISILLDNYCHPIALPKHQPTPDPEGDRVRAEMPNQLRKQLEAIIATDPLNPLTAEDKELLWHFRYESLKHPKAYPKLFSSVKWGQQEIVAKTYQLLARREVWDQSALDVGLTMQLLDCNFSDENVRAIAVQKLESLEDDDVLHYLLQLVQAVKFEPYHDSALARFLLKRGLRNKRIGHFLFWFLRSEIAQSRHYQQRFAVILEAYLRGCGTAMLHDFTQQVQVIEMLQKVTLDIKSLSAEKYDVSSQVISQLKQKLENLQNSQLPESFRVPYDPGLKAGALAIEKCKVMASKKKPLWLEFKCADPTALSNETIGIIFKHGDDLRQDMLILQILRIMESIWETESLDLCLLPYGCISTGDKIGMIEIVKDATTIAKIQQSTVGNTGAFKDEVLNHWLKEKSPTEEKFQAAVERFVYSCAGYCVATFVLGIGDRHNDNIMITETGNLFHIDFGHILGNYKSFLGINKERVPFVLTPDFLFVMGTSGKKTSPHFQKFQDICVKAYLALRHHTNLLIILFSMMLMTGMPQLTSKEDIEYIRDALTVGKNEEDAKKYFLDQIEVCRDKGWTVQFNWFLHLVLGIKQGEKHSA

[2] = Table 1, isozyme not given, read-out: in vitro
[3] = in vitro PI3K-γ inhibitory activity, class symbols, read-out: in vitro PI3K-gamma
[4] = in vitro PI3K-γ inhibitory activity, class symbols A-D, read-out: in vitro PI3K-gamma

melting point | pIC50 [1, 2] | pIC50 [1, 3] | pIC50 [1, 4] | SMILES
271 °C | > 7.00 |  |  | CC(=O)Nc1ccc(/C(O)=C/C2=Nc3c(ccc(C)c3OCCN3CCOCC3)C3=NCCN23)cn1.Cl [Example 1-41]
185 °C (dec.) |  | > 7.00 |  | COc1cccc2c1N=C(NC(=O)c1cccnc1Cl)N1CCN=C21 [Example 2-118]
298 °C (dec.) |  | 6.30 to 7.00 |  | Cc1c(C(=O)NC2=Nc3ccccc3C3=NCCN23)cnc(N)c1C.Cl [Example 2-161]
288 °C |  | > 7.00 |  | COc1ccc2c(c1)C1=NCCN1C(NC(=O)c1ccc3[nH]cnc3c1)=N2.Cl [Example 2-94]
207 to 208 °C |  | 6.30 to 7.00 |  | CCn1nc(C)cc1C(=O)NC1=Nc2ccccc2C2=NCCN12 [Example 2-191]
134 to 138 °C | 5.70 to 6.30 |  |  | CC(C)(C)/C(O)=C/C1=Nc2ccccc2C2=NCCN12 [Example 1-183]
267 °C | > 7.00 |  |  | Cl.O=C(O)CCCCc1ccc2c(n1)N=C(/C=C(\O)c1cccnc1)N1CCN=C21 [Example 1-206]
202 to 203 °C |  |  | < 5.70 | CC(C)n1nnc2cc(C(=O)NC3=Nc4ccccc4C4=NCCN34)ccc21 [Example 2-311]
218 °C | > 7.00 |  |  | Cl.O/C(=C\C1=Nc2c(F)cccc2C2=NCCN12)c1cccnc1 [Example 1-70]
263 °C |  | > 7.00 |  | Cl.O=C(NC1=Nc2c(cccc2C(F)(F)F)C2=NCCN12)c1cccnc1 [Example 2-111]
209 to 211 °C |  |  | < 5.70 | O=C(NC1=Nc2ccccc2C2=NCCN12)c1ccc(-n2cccn2)cc1 [Example 2-270]
259 to 260 °C |  |  | < 5.70 | Cn1c(C(=O)NC2=Nc3ccccc3C3=NCCN23)cc2ccccc21 [Example 2-314]
199 °C | 6.30 to 7.00 |  |  | COc1ccc2c(c1)C1=NCCN1C(/C=C(\O)c1cccnc1)=N2 [Example 1-126]
298 to 299 °C |  |  | 5.70 to 6.30 | CSc1ncccc1C(=O)NC1=Nc2ccccc2C2=NCCN12.Cl [Example 2-289]
292 °C |  |  | 5.70 to 6.30 | Cl.O=C(NC1=Nc2cc(C(F)(F)F)ccc2C2=NCCN12)c1cccs1 [Example 2-350]
> 300 °C | 6.30 to 7.00 |  |  | Cl.O/C(=C\C1=Nc2ccccc2C2=NCCN12)c1ccc2[nH]cnc2c1 [Example 1-157]
214 °C (dec.) |  | > 7.00 |  | COc1cccc2c1N=C(NC(=O)c1cc3cccnc3nc1C(F)(F)F)N1CCN=C21 [Example 2-128]
209 °C |  | > 7.00 |  | Cc1ccc(C(=O)NC2=Nc3cc(N4CCOCC4)ccc3C3=NCCN23)cn1 [Example 2-13]
198 °C (dec.) |  |  | < 5.70 | O=C(NC1=Nc2ccccc2C2=NCCN12)c1ccc(Cl)s1 [Example 2-301]
239 °C |  | 6.30 to 7.00 |  | Cl.O=C(NC1=Nc2cc(OCCn3cccc3)ccc2C2=NCCN12)c1cccnc1 [Example 2-196]
192 to 193 °C |  |  | 5.70 to 6.30 | Cc1ccc(C(=O)NC2=Nc3ccccc3C3=NCCN23)s1 [Example 2-302]
110 °C |  | > 7.00 |  | COc1cccc2c1N=C(NC(=O)c1cccnc1)N1CCN=C21 [Example 2-114]
264 °C | 5.70 to 6.30 |  |  | O/C(=C\C1=Nc2cc(C(F)(F)F)ccc2C2=NCCN12)c1cccnc1 [Example 1-121]
222 to 223 °C | > 7.00 |  |  | CC(C)(C)OC(=O)COc1cccc2c1N=C(/C=C(\O)c1cccnc1)N1CCN=C21.Cl [Example 1-90]

melting point | pIC50 [1, 2] | pIC50 [1, 3] | pIC50 [1, 4] | SMILES
144 to 145 °C |  | 6.30 to 7.00 |  | COc1cccc2c1N=C(NC(=O)c1cnccc1C(F)(F)F)N1CCN=C21 [Example 2-121]
> 290 °C |  | > 7.00 |  | Cc1cccc2c1N=C(NC(=O)c1ccc3[nH]cnc3c1)N1CCN=C21 [Example 2-109]
220 °C |  | > 7.00 |  | Cc1cc(Br)c2c(c1)C1=NCCN1C(NC(=O)c1cccnc1)=N2.Cl [Example 2-74]
> 410 °C |  |  | < 5.70 | CC(C)(C)Oc1ccc(C(=O)NC2=Nc3ccccc3C3=NCCN23)cc1 [Example 2-236]
273 °C (dec.) |  | > 7.00 |  | O=C(NC1=Nc2ccccc2C2=NCCN12)c1cncc(O)c1 [Example 2-138]
204 to 205 °C |  | 6.30 to 7.00 |  | COc1cccc2c1N=C(NC(=O)c1cccnc1C)N1CCN=C21 [Example 2-116]
275 °C (dec.) |  | 6.30 to 7.00 |  | COc1cc(OC)c2c(c1)C1=NCCN1C(NC(=O)c1cccnc1)=N2.Cl [Example 2-69]
314 °C (dec.) |  |  | 5.70 to 6.30 | Cl.O=C(NC1=Nc2ccccc2C2=NCCN12)c1ccc2ncsc2c1 [Example 2-313]
286 °C (dec.) | 6.30 to 7.00 |  |  | COc1ccc2c(c1OCC(=O)O)N=C(/C=C(\O)c1cccnc1)N1CCN=C21.Cl [Example 1-200]
185 to 186 °C |  |  | < 5.70 | Cc1ccc(C(=O)NC2=Nc3ccccc3C3=NCCN23)cc1 [Example 2-218]
240 °C (dec.) | > 7.00 |  |  | COc1cc2c(cc1OC)C1=NCCN1C(/C=C(\O)c1ccc3[nH]cnc3c1)=N2.Cl [Example 1-57]
288 °C |  | > 7.00 |  | Cl.O=C(NC1=Nc2cc(C(F)(F)F)ccc2C2=NCCN12)c1ccc2[nH]cnc2c1 [Example 2-37]
232 °C |  | 6.30 to 7.00 |  | CCn1nc(C)cc1C(=O)NC1=Nc2cc(N3CCOCC3)ccc2C2=NCCN12 [Example 2-18]
246 °C |  | > 7.00 |  | COc1cc2c(cc1OC)C1=NCCN1C(NC(=O)c1ccc3[nH]cnc3c1)=N2 [Example 2-60]
198 to 199 °C |  | 6.30 to 7.00 |  | O=C(NC1=Nc2ccccc2C2=NCCN12)c1sccc1Cl [Example 2-180]
198 to 202 °C (dec.) | 6.30 to 7.00 |  |  | O/C(=C\C1=Nc2c(CN3CCOCC3)cccc2C2=NCCN12)c1cccnc1 [Example 1-82]
162 to 163 °C | 6.30 to 7.00 |  |  | COc1c(OCCN2CCCCC2)ccc2c1N=C(/C=C(\O)c1cccnc1)N1CCN=C21 [Example 1-20]
251 °C (dec.) |  | > 7.00 |  | COc1cccc2c1N=C(NC(=O)c1cccnc1C)N1CCN=C21.Cl [Example 2-117]
240 °C | 5.70 to 6.30 |  |  | O/C(=C\C1=Nc2ccccc2C2=NCCN12)C(F)(F)F [Example 1-184]
321 °C | 6.30 to 7.00 |  |  | Cl.O/C(=C\C1=Nc2cc(C(F)(F)F)ccc2C2=NCCN12)c1cccnc1 [Example 1-122]
259 °C (dec.) |  |  | < 5.70 | COc1ccc(C(=O)NC2=Nc3ccccc3C3=NCCN23)c(OC)c1.Cl [Example 2-237]
287 °C (dec.) |  | > 7.00 |  | COc1cc2c(cc1OC)C1=NCCN1C(NC(=O)c1cncc(O)c1)=N2 [Example 2-54]
240 to 248 °C | < 5.70 |  |  | O=[N+]([O-])c1ccc(/C(O)=C/C2=Nc3ccccc3C3=NCCN23)cc1 [Example 1-168]
195 °C | 5.70 to 6.30 |  |  | O/C(=C\C1=Nc2ccccc2C2=NCCN12)c1ccccn1 [Example 1-173]
